# Assay results as given in US20070172957A1, “Methods of identifying anti-inflammatory macrolides” (TAISHO PHARMACEUTICAL CO., LTD., priority 2004, published 2007).
# Test system: genes predictive for the anti-inflammatory macrolide effect
# Assay: Genes statistically predictive of Clari response: differentially expressed with Clari but not the inactive macrolides MAA or Josa (Appendix E)
# Assay type: cell-based
# From the text: In the case of the above-mentioned (i) related to arachidonic acid biosynthesis, specifically, methods of the embodiment involve assaying whether a test macrolide alters biosynthesis of arachidonic acid, alters the expression or activities of enzymes involved in the biosynthesis or activation of arachidonic acid (e.g., arachidonic acid CoA synthetase, delta-6 desaturase, fatty acid elongase, and delta-5 desaturase, AA-related genes in Tables 2 and 3), or alters the expression of genes identified as predictive for the anti-inflammatory macrolide effect (Appendix E). Assays in which arachidonic acid or gene expression or enzymatic activity is detected can be carried out after contacting a cell with a test macrolide. Any cell line that secretes prostaglandin or produces arachidonic acid can be used. Epithelial and macrophages lines (e.g., A549 or THP-1) are suitable for this purpose; other cell lines can be identified by carrying out assays such as those described in the specific Examples, below. Alternatively, screening assays can be carried out after adding a test macrolide to an in vitro cell system (e.g., a cellular extract or liver microsome preparation) or an in vitro enzyme assay system.
compound,measurement,setting,value
CO[C@@H]1[C@@H](O[C@@H]2O[C@H](C)[C@@H](O[C@H]3C[C@@](C)(O)[C@@H](OC(=O)CC(C)C)[C@H](C)O3)[C@H](N(C)C)[C@H]2O)[C@@H](CC=O)C[C@@H](C)[C@@H](O)/C=C/C=C/C[C@@H](C)OC(=O)C[C@H]1OC(C)=O [josamycin],"group mean, gene UNG","SpotID 48807, MAA and Josa vs. Clari",1.03
same,"group mean, gene TUBB","SpotID 48914, MAA and Josa vs. Clari",0.96
same,"group mean, gene ITGAE","SpotID 48921, MAA and Josa vs. Clari",0.85
same,"mean group, ITGAE","SpotID 48921, pooled group mean",0.85
same,"group mean, gene P4HA2","SpotID 48971, MAA and Josa vs. Clari",1.07
same,"group mean, gene FADS1","SpotID 48998, MAA and Josa vs. Clari",1.02
same,"group mean, gene PRSS25","SpotID 49006, MAA and Josa vs. Clari",1.02
same,"mean group, PRSS25","SpotID 49006, pooled group mean",1.02
same,"group mean, gene TM9SF2","SpotID 49007, MAA and Josa vs. Clari",1.08
same,"mean group, TM9SF2","SpotID 49007, pooled group mean",1.08
same,"group mean, gene BBC3","SpotID 49013, MAA and Josa vs. Clari",0.93
same,"group mean, gene BNIP3L","SpotID 49028, MAA and Josa vs. Clari",1.03
same,"mean group, BNIP3L","SpotID 49028, pooled group mean",1.03
same,"group mean, gene GSK3B","SpotID 49032, MAA and Josa vs. Clari",1.06
same,"group mean, gene GLUD1","SpotID 49047, MAA and Josa vs. Clari",1.05
same,"group mean, gene SERPINB1","SpotID 49117, MAA and Josa vs. Clari",1.01
same,"mean group, SERPINB1","SpotID 49117, pooled group mean",1.01
same,"group mean, gene PPIB","SpotID 49142, MAA and Josa vs. Clari",1.03
same,"group mean, gene PIK3R3","SpotID 49144, MAA and Josa vs. Clari",1.01
same,"group mean, gene ARTS-1","SpotID 49155, MAA and Josa vs. Clari",1.11
same,"mean group, ARTS-1","SpotID 49155, pooled group mean",1.11
same,"group mean, gene LGALS3","SpotID 49163, MAA and Josa vs. Clari",1.06
same,"group mean, gene RRS1","SpotID 49169, MAA and Josa vs. Clari",1.09
same,"mean group, RRS1","SpotID 49169, pooled group mean",1.09
same,"group mean, gene YAF2","SpotID 49172, MAA and Josa vs. Clari",1.01
same,"group mean, gene NEDD8","SpotID 49177, MAA and Josa vs. Clari",0.97
same,"group mean, gene SRRM1","SpotID 49183, MAA and Josa vs. Clari",0.96
same,"group mean, gene FUCA1","SpotID 49197, MAA and Josa vs. Clari",0.98
same,"group mean, gene APOE","SpotID 49233, MAA and Josa vs. Clari",0.96
same,"mean group, APOE","SpotID 49233, pooled group mean",0.96
same,"mean group, TNFRSF10B","SpotID 49272, pooled group mean",0.97
same,"group mean, gene PPIB","SpotID 49314, MAA and Josa vs. Clari",1.04
same,"mean group, PPIB","SpotID 49314, pooled group mean",1.04
same,"group mean, gene YWHAH","SpotID 49318, MAA and Josa vs. Clari",1.08
same,"mean group, YWHAH","SpotID 49318, pooled group mean",1.08
same,"group mean, gene HNRPA3","SpotID 49347, MAA and Josa vs. Clari",1.01
same,"group mean, gene NCBP2","SpotID 49352, MAA and Josa vs. Clari",0.94
same,"group mean, gene TEB4","SpotID 49360, MAA and Josa vs. Clari",1.10
same,"mean group, TEB4","SpotID 49360, pooled group mean",1.10
same,"group mean, gene ABCE1","SpotID 49364, MAA and Josa vs. Clari",1.06
same,"group mean, gene EIF3S9","SpotID 49373, MAA and Josa vs. Clari",1.06
same,"mean group, SpotID 49374","SpotID 49374 (gene symbol not given), pooled group mean",0.97
same,"group mean, SpotID 49374 (gene symbol not given)","SpotID 49374, MAA and Josa vs. Clari",0.97
same,"group mean, gene SLC35A2","SpotID 49380, MAA and Josa vs. Clari",0.99
same,"group mean, gene PPP3CB","SpotID 49391, MAA and Josa vs. Clari",1.02
same,"group mean, gene TRRAP","SpotID 49435, MAA and Josa vs. Clari",1.07
same,"mean group, TRRAP","SpotID 49435, pooled group mean",1.07
same,"group mean, gene SRC","SpotID 49446, MAA and Josa vs. Clari",1.00
same,"mean group, SRC","SpotID 49446, pooled group mean",1.00
same,"group mean, gene LOC55871","SpotID 49481, MAA and Josa vs. Clari",0.90
same,"group mean, gene VTN","SpotID 49490, MAA and Josa vs. Clari",1.12
same,"mean group, VTN","SpotID 49490, pooled group mean",1.12
same,"group mean, gene MATN2","SpotID 49511, MAA and Josa vs. Clari",0.93
same,"group mean, gene GC20","SpotID 49512, MAA and Josa vs. Clari",1.01
same,"group mean, gene UBC","SpotID 49514, MAA and Josa vs. Clari",0.97
same,"mean group, UBC","SpotID 49514, pooled group mean",0.97
same,"group mean, gene AP1G2","SpotID 49524, MAA and Josa vs. Clari",0.74
same,"mean group, AP1G2","SpotID 49524, pooled group mean",0.74
same,"group mean, gene GNPI","SpotID 49546, MAA and Josa vs. Clari",1.05
same,"mean group, LOC54543","SpotID 49577, pooled group mean",0.88
same,"group mean, gene PSMC4","SpotID 49580, MAA and Josa vs. Clari",1.12
same,"mean group, CSTF3","SpotID 49606, pooled group mean",0.98
same,"group mean, gene POU4F1","SpotID 49608, MAA and Josa vs. Clari",0.97
same,"group mean, gene CLN2","SpotID 49618, MAA and Josa vs. Clari",1.03
same,"mean group, CLN2","SpotID 49618, pooled group mean",1.03
same,"group mean, gene FGF2","SpotID 49649, MAA and Josa vs. Clari",1.12
same,"group mean, gene MAP3K10","SpotID 49650, MAA and Josa vs. Clari",0.93
same,"mean group, BTN3A2","SpotID 49673, pooled group mean",0.92
same,"mean group, SERPINF1","SpotID 49679, pooled group mean",0.98
same,"group mean, gene GSK3B","SpotID 49688, MAA and Josa vs. Clari",1.05
same,"group mean, gene CAT","SpotID 49698, MAA and Josa vs. Clari",0.92
same,"group mean, gene PCYT2","SpotID 49705, MAA and Josa vs. Clari",0.92
same,"group mean, gene HNRPD","SpotID 49715, MAA and Josa vs. Clari",0.99
same,"group mean, gene GSK3B","SpotID 49735, MAA and Josa vs. Clari",1.02
same,"group mean, gene CHAF1B","SpotID 49737, MAA and Josa vs. Clari",0.99
same,"mean group, CHAF1B","SpotID 49737, pooled group mean",0.99
same,"group mean, gene USF2","SpotID 49744, MAA and Josa vs. Clari",0.93
same,"group mean, gene RPLP0","SpotID 49747, MAA and Josa vs. Clari",0.91
